Source: patent US20150258105A1, “METHODS FOR ACUTE AND LONG-TERM TREATMENT OF ALCOHOL DEPENDENCE” (DemeRx, Inc., priority 2014, published 2015)
Entries after “also recorded” stand apart in the source; their conditions may differ.

What was measured:
[1] = Pharmacokinetics of noribogaine in healthy volunteers, ascending single oral dose (plasma, LCMSMS); settings: for AUC0-216 / AUC0-∞ / Cmax / Tmax / t1/2 / CL/F: fasted healthy volunteers, mean (SD), n = 6; for mean AUC/24 hr / mean AUC/24: fasting conditions
[2] = system: opioid-dependent participants; assay: Time to resumption of opioid substitution treatment (OST) in opioid-dependent participants; assay type: in vivo, human; settings: single 180 mg dose
[3] = system: opioid-dependent participants; assay: Opiate withdrawal scales (COWS, SOWS, OOWS) in opioid-dependent participants; assay type: in vivo, human; settings: first six hours following dosing
Experimental: Patients were evaluated based on the Clinical Opiate Withdrawal Scale (COWS), Subjective Opiate Withdrawal Scale (SOWS), and Objective Opiate Withdrawal Scale (OOWS) scoring systems over the period of time between administration of noribogaine (or placebo) until resumption of OST. These scales are outlined in Guidelines for the Psychosocially Assisted Pharmacological Treatment of Opioid Dependence, World Health Organization, Geneva (2009), Annex 10, which is incorporated herein by reference in its entirety. The scales measure the intensity of withdrawal symptoms, based on clinical, subjective, and objective indicia.

[4] = system: patients dependent on alcohol; assay: Effect of noribogaine on withdrawal from alcohol in humans; assay type: in vivo, human; settings: single oral dose of 2 mg/kg, at least 2 hours after last alcohol use; self-evaluation and clinical observation
Experimental: Six patients are orally administered a single dose of 2 mg/kg noribogaine, and three patients receive placebo in a randomized, placebo-controlled, double-blind trial. All patients are dependent on alcohol. Treatment is administered at least 2 hours after last alcohol use.

[5] = system: healthy, drug-free male volunteers; assay: Safety and tolerability of noribogaine in healthy humans (adverse events, vital signs, ECG); assay type: in vivo, human
Experimental: (§1) Pulse oximetry and capnography data were collected continuously using a GE Carescape B650 monitoring system from 2 hours prior to dosing and until six hours after dosing, and thereafter at 12, 24, 48 and 72 hours post-dosing. […] Pupillary miosis was assessed by pupillometry.
(§2) Safety and tolerability of noribogaine were tested in the group of volunteers from Example 1. […] Safety evaluations included clinical monitoring, recording of adverse events (AEs), safety laboratory tests, vital signs, ECG telemetry from −2 h to 6 h after dosing, and 12-lead electrocardiograms (ECGs) up to 216 hours post-dosing.

[6] = system: opioid-dependent participants; assay: QT interval prolongation (ΔQTc1) in opioid-dependent participants; assay type: in vivo, human; settings: 60, 120, 180 mg, first 24 hours post administration
Experimental: Patients' QT intervals were evaluated at regular time points throughout the study.

[7] = Pharmacokinetics in opioid-dependent patients, Phase IB study (serum noribogaine); settings: 60, 120, 180 mg cohorts
[8] = system: healthy, drug-free male volunteers; assay: Cold pressor test (analgesic effect) in healthy volunteers; assay type: in vivo, human
Experimental: Analgesic effect was assessed based on duration of hand immersion in ice water and on visual analog scale (VAS) pain scores upon hand removal from the water bath.
as §2

[9] = system: healthy, drug-free male volunteers; assay: Pupillometry (pupillary miosis) in healthy volunteers; assay type: in vivo, human
Experimental: as §1
Summary statistics (means, standard deviations, and coefficients of variation) were determined for each dose group for safety laboratory test data, ECG and pharmacokinetic parameters, and pharmacodynamic variables. Categorical variables were analysed using counts and percentages. Dose-proportionality of AUC and Cmax was assessed using linear regression. The effect of dose on pharmacodynamic parameter values over time was assessed using two-factor analysis of variance (ANOVA). Pairwise comparisons (with Tukey-Kramer adjustment) between each dose group to the placebo were conducted at each time point using the least squares estimates obtained from the ANOVA, using SAS Proc Mixed (SAS ver 6.0).

[10] = system: opioid-dependent participants; assay: Treatment emergent adverse events in opioid-dependent participants, single dose
[11] = 30 mg single oral noribogaine dose, plasma
[12] = 60 mg single oral noribogaine dose, plasma
[13] = across dose groups, healthy volunteers, plasma
[14] = after adjusting for baseline differences, p>0.9

CC[C@H]1C[C@@H]2C[C@H]3c4[nH]c5ccc(OC6OC(C(=O)O)C(O)C(O)C6O)cc5c4CCN(C2)[C@@H]13 (some centres unmarked) [Noribogaine glucuronide, noribogaine glucuronide]
AUC0-216 [1, 11]: 25.7 (9.1) ng · hr/ml | AUC0-∞ [1, 11]: 25.8 (9.3) ng · hr/ml | Cmax [1, 11]: 1.8 (0.6) ng/ml | Tmax [1, 11]: 3.0 (0.6) hr | t1/2 [1, 11]: 20.6 (4.9) hr | AUC0-216 [1, 12]: 65.0 (21.5) ng · hr/ml | AUC0-∞ [1, 12]: 67.1 (21.9) ng · hr/ml | Cmax [1, 12]: 4.1 (1.2) ng/ml | Tmax [1, 12]: 3.8 (1.2) hr | t1/2 [1, 12]: 23.1 (3.0) hr | mean half-life estimates [1, 13]: 21 to 23 h | time of peak concentrations after oral noribogaine dosing [1, 13]: 3 to 4 h | time by which detected in plasma of all subjects ([1]; after 30 mg or 60 mg oral noribogaine, healthy volunteers): ≤ 0.75 h | proportion of noribogaine glucuronide Cmax and AUC relative to noribogaine ([1]; both dose groups (30 mg and 60 mg)): 3-4%

CC[C@H]1CC2C[C@H]3c4[nH]c5ccc(O)cc5c4CCN(C2)C13 [noribogaine]
Time to resumption of OST compared with untreated patients and 60 mg [2]: still longer than untreated patients (7 hours, not shown) or those administered 60 mg noribogaine | withdrawal symptoms (COWS, OOWS, SOWS scores) ([3]; 120 mg, prior to resumption of OST): fewer withdrawal symptoms than the other patients | withdrawal symptoms versus placebo (COWS, OOWS, SOWS scores) ([3]; 60, 120, 180 mg): placebo generally experienced more withdrawal symptoms than patients who were administered noribogaine | symptoms of alcohol withdrawal compared to placebo [4]: fewer and/or less severe symptoms of alcohol withdrawal | number of adverse events reported ([5]; 3 mg dose group, by two subjects): five | number of adverse events reported ([5]; 10 mg dose group, by a single subject): one | number of adverse events reported ([5]; 30 mg dose group, by a single subject): one | oximetry, capnography, respiratory rate ([5]; 3-60 mg, healthy volunteers): no changes in oximetry or capnography, or changes in respiratory rate | vital signs and safety laboratory tests ([5]; 3-60 mg, healthy volunteers): no changes in vital signs or safety laboratory tests of note | QTcF values >500 msec ([5]; 3-60 mg, healthy volunteers, ECGs up to 216 hours post-dosing): no QTcF values >500 msec at any time | Adverse events, Mild ([5]; Dose 3 mg, healthy volunteers): Dizziness; also recorded: Epistaxis; also recorded: Headache; also recorded: Back pain | Adverse events, Moderate ([5]; Dose 3 mg, healthy volunteers): Headache | Adverse events, Mild ([5]; Dose 10 mg, healthy volunteers): Headache | Adverse events, Mild ([5]; Dose 30 mg, healthy volunteers): Headache | intensity of adverse events ([5]; all dose groups, all resolved prior to study completion): mild-moderate intensity | single increase in QTcF ([5]; one subject dosed with 10 mg, at 24 hours post-dosing): > 60 ms | QT interval prolongation (ΔQTc1) [6]: dose-dependent increase in QT interval prolongation | dose dependence of maximum serum concentration (Cmax) [7]: increased in a dose-dependent manner | analgesic effect in the cold pressor test ([8]; 3-60 mg single oral doses, 1° C. water): no analgesic effect | VAS pain scores, each dose group versus placebo (ANOVA) ([8]; after adjusting for baseline differences, p=0.17): no statistically significant differences | duration of hand immersion, each dose group versus placebo (ANOVA) [8, 14]: no statistically significant differences | CL/F ([1]; 3 mg single oral noribogaine dose, plasma): 41.4 (7.0) L/h | CL/F ([1]; 10 mg single oral noribogaine dose, plasma): 42.3 (12.0) L/h | CL/F [1, 11]: 46.9 (16.4) L/h | Tmax ([1]; 30 mg single oral noribogaine dose, plasma, listed as noribogaine free base): 1.75 h | CL/F [1, 12]: 34.0 (11.4) L/h | dose dependence of Cmax and AUC ([1]; 3-60 mg single oral doses, healthy volunteers): increased linearly with dose | Volume of distribution ([1]; across dose groups (3-60 mg), healthy volunteers): 1417 to 3086 L | time of peak concentrations after oral noribogaine dosing [1, 13]: 2 to 3 h | absorption after oral dosing ([1]; healthy volunteers): rapidly absorbed | mean AUC/24 hr ([1]; single dose of 3 mg noribogaine free base, healthy volunteers): 3.1 ng/mL | mean AUC/24 hr ([1]; single dose of 10 mg noribogaine free base, healthy volunteers): 10.6 ng/mL | mean AUC/24 ([1]; single dose of 30 mg noribogaine free base, healthy volunteers): 29.2 ng/mL | mean AUC/24 ([1]; single dose of 60 mg noribogaine free base, healthy volunteers): 61 ng/mL | pupillary constriction ([9]; 3-60 mg single oral doses, dark-adapted pupil diameter up to 216 hours): no evidence of pupillary constriction | pupil diameter, each dose group versus placebo (ANOVA) [9, 14]: no statistically significant differences | AE: Catheter Site Infection ([10]; 60 mg single dose, N = 6): 0 | AE: Catheter Site Pain ([10]; 60 mg single dose, N = 6): 0 | AE: Catheter Site Related Reaction ([10]; 60 mg single dose, N = 6): 0 | AE: Cellulitis ([10]; 60 mg single dose, N = 6): 0 | AE: Diarrhoea ([10]; 60 mg single dose, N = 6): 0 | AE: Dry Mouth ([10]; 60 mg single dose, N = 6): 0 | AE: Ear and Labyrinth Disorders ([10]; 60 mg single dose, N = 6): 0 | AE: Epistaxis ([10]; 60 mg single dose, N = 6): 0 | AE: Euphoric Mood ([10]; 60 mg single dose, N = 6): 0 | AE: General Disorders and Administration Site Conditions ([10]; 60 mg single dose, N = 6): 0 | AE: Hyperaesthesia ([10]; 60 mg single dose, N = 6): 0 | AE: Infections and Infestations ([10]; 60 mg single dose, N = 6): 0 | AE: Limb Discomfort ([10]; 60 mg single dose, N = 6): 0 | AE: Malaise ([10]; 60 mg single dose, N = 6): 0 | AE: Nausea ([10]; 60 mg single dose, N = 6): 0 | AE: Oropharyngeal Pain ([10]; 60 mg single dose, N = 6): 0 | AE: Pseudoparalysis ([10]; 60 mg single dose, N = 6): 0 | AE: Respiratory, Thoracic and Mediastinal Disorders ([10]; 60 mg single dose, N = 6): 0 | AE: Rhinorrhoea ([10]; 60 mg single dose, N = 6): 0 | AE: Skin Discomfort ([10]; 60 mg single dose, N = 6): 0 | AE: Skin Irritation ([10]; 60 mg single dose, N = 6): 0 | AE: Skin and Subcutaneous Tissue Disorders ([10]; 60 mg single dose, N = 6): 0 | AE: Somnoience ([10]; 60 mg single dose, N = 6): 0 | AE: Tinnitus ([10]; 60 mg single dose, N = 6): 0 | AE: Tremor ([10]; 60 mg single dose, N = 6): 0 | AE: Urinary Tract Infection ([10]; 60 mg single dose, N = 6): 0 | AE: Vomiting ([10]; 60 mg single dose, N = 6): 0 | frequency of headaches ([10]; 60 mg treatment group): frequent | frequency of headaches ([10]; 120 mg dose group): attenuated | AE: Back Pain ([10]; 120 mg single dose, N = 6): 0 | AE: Catheter Site Infection ([10]; 120 mg single dose, N = 6): 0 | AE: Catheter Site Related Reaction ([10]; 120 mg single dose, N = 6): 0 | AE: Depressed Mood ([10]; 120 mg single dose, N = 6): 0 | AE: Dry Eye ([10]; 120 mg single dose, N = 6): 0 | AE: Dyspepsia ([10]; 120 mg single dose, N = 6): 0 | AE: Euphoric Mood ([10]; 120 mg single dose, N = 6): 0 | AE: Limb Discomfort ([10]; 120 mg single dose, N = 6): 0 | AE: Malaise ([10]; 120 mg single dose, N = 6): 0 | AE: Musculoskeletal and Connective Tissue Disorders ([10]; 120 mg single dose, N = 6): 0 | AE: Psychiatric Disorders ([10]; 120 mg single dose, N = 6): 0 | AE: Somnoience ([10]; 120 mg single dose, N = 6): 0 | AE: Urinary Tract Infection ([10]; 120 mg single dose, N = 6): 0 | frequency of headaches ([10]; 180 mg dose group): attenuated | AE: Catheter Site Infection ([10]; 180 mg single dose, N = 6): 0 | AE: Catheter Site Pain ([10]; 180 mg single dose, N = 6): 0 | AE: Depressed Mood ([10]; 180 mg single dose, N = 6): 0 | AE: Diarrhoea ([10]; 180 mg single dose, N = 6): 0 | AE: Dry Eye ([10]; 180 mg single dose, N = 6): 0 | AE: Dyspepsia ([10]; 180 mg single dose, N = 6): 0 | AE: Ear and Labyrinth Disorders ([10]; 180 mg single dose, N = 6): 0 | AE: Epistaxis ([10]; 180 mg single dose, N = 6): 0 | AE: Euphoric Mood ([10]; 180 mg single dose, N = 6): 0 | AE: Hyperaesthesia ([10]; 180 mg single dose, N = 6): 0 | AE: Malaise ([10]; 180 mg single dose, N = 6): 0 | AE: Oropharyngeal Pain ([10]; 180 mg single dose, N = 6): 0 | AE: Pseudoparalysis ([10]; 180 mg single dose, N = 6): 0 | AE: Psychiatric Disorders ([10]; 180 mg single dose, N = 6): 0 | AE: Respiratory, Thoracic and Mediastinal Disorders ([10]; 180 mg single dose, N = 6): 0 | AE: Rhinorrhoea ([10]; 180 mg single dose, N = 6): 0 | AE: Skin Discomfort ([10]; 180 mg single dose, N = 6): 0 | AE: Skin Irritation ([10]; 180 mg single dose, N = 6): 0 | AE: Skin and Subcutaneous Tissue Disorders ([10]; 180 mg single dose, N = 6): 0 | AE: Somnoience ([10]; 180 mg single dose, N = 6): 0 | AE: Tinnitus ([10]; 180 mg single dose, N = 6): 0 | AE: Tremor ([10]; 180 mg single dose, N = 6): 0 | hallucinatory effects ([10]; 60, 120 or 180 mg single dose, opioid-dependent participants): no hallucinatory effects
